Laboratory results as given in patent publication US12371454B2, “Cyclic peptide compound having Kras inhibitory action” (priority 2019, dated 2025).
Starred links: 1 amine or outer side, 2 acyl side, 3 side chain; linkers in the order of their positions; H or OH if unused. Positions of bridges follow the written chain, without caps; N, C: chain ends. Non-standard residues stand in square brackets, D forms with d. Residues, ends and D or L forms follow the SMILES beside them. *: point of attachment. hPhe(3-Cl-4-CF3) = N[C@@H](CCc1ccc(C(F)(F)F)c(Cl)c1)C(=O)O; NMePhe(4-CF3) = CN[C@@H](Cc1ccc(C(F)(F)F)cc1)C(=O)O; NMePhe(4-Cl) = CN[C@@H](Cc1ccc(Cl)cc1)C(=O)O; NMePhe(4-Me) = CN[C@@H](Cc1ccc(C)cc1)C(=O)O; NMedβ3hAla = C[C@H](CC(=O)[*:2])N(C)[*:1]; Leu(4,5-dehydro) = C=C(C)C[C@H](N)C(=O)O; NMeAla(cPent) = CN[C@@H](CC1CCCC1)C(=O)O; Phe(3-Br) = N[C@@H](Cc1cccc(Br)c1)C(=O)O; Phe(3-Cl) = N[C@@H](Cc1cccc(Cl)c1)C(=O)O; Phe(3-OMe) = COc1cccc(C[C@H](N)C(=O)O)c1; Phe(3-I) = N[C@@H](Cc1cccc(I)c1)C(=O)O; X10 = CC(C)=CC[C@H](N[*:1])C(=O)[*:2]; NMeCha = CN[C@@H](CC1CCCCC1)C(=O)O; NMeCba = CN[C@@H](CC1CCC1)C(=O)O; NMeD = CN[C@@H](CC(=O)O)C(=O)O; NMeL = CN[C@@H](CC(C)C)C(=O)O; NMeA = CN[C@@H](C)C(=O)O; NMeAib = CNC(C)(C)C(=O)O; Nle = CCCC[C@H](N)C(=O)O; Piperidide = C1CCN(*)CC1; Pyrrolidide = C1CCN(*)C1; dNMeA = CN[C@H](C)C(=O)O; Aze = O=C(O)[C@@H]1CCN1; Nva = CCC[C@H](N)C(=O)O; Sar = CNCC(=O)O

The compounds below were run against T1, Kras and SOS1 (biotin-tagged human Kras loaded with GDP, His-tagged human SOS1) (Homo sapiens, UniProt P01116, G12D) (assay: Protein-protein interaction inhibition between Kras and SOS1 (KrasGl2D-SOS PPI) using AlphaScreen). Settings: AlphaScreen; biotin-tagged human Kras loaded with GDP, His-tagged human SOS1; read-out: KRAS G12D-SOS PPI IC50.
T1 construct: made in house; host or cells: E. coli (stated for Kras only)
Assay type: binding
Outline: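 Binding between SOS1 and Kras is detected as bead-proximity luminescence: illuminate Ni-conjugated donors (680 nm), collect 520-620 nm emission from streptavidin-conjugated acceptors; Kras carries biotin and GDP loaded after purification, SOS1 carries a His tag.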

T1 sequence (P01116 1-188 isoform P01116-2 G12D): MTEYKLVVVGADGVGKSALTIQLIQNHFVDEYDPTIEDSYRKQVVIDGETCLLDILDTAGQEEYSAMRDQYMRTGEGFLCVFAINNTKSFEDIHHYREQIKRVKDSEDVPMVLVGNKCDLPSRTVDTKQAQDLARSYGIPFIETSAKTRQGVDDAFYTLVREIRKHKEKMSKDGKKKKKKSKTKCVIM

Structure (SMILES) | IC50 [nM]
CC[C@H](C)[C@@H]1NC(=O)[C@H](CC(C)C)N(C)C(=O)C[C@@H](C)N(C)C(=O)[C@H](CC(C)C)NC(=O)C(C)(C)N(C)C(=O)[C@H](CC(C)C)NC(=O)[C@H](CCc2ccc(C(F)(F)F)c(Cl)c2)NC(=O)CN(C)C(=O)[C@H](Cc2ccc(C)cc2)N(C)C(=O)[C@@H]2CCN2C(=O)CN(C)C1=O [Compound 1386] (cyclo([Aze][NMePhe(4-Me)][Sar][hPhe(3-Cl-4-CF3)]L[NMeAib]L[NMedβ3hAla][NMeL]I[Sar])) | 10
CC[C@H](C)[C@@H]1NC(=O)[C@H](C)N(C)C(=O)C[C@@H](C)N(C)C(=O)[C@H](CC(C)C)NC(=O)C(C)(C)N(C)C(=O)[C@H](CC(C)C)NC(=O)[C@H](CCc2ccc(C(F)(F)F)c(Cl)c2)NC(=O)CN(C)C(=O)[C@H](CC2CCCCC2)N(C)C(=O)[C@@H]2CCN2C(=O)CN(C)C1=O [Compound 1387] (cyclo([Aze][NMeCha][Sar][hPhe(3-Cl-4-CF3)]L[NMeAib]L[NMedβ3hAla][NMeA]I[Sar])) | 14
CC[C@H](C)[C@@H]1NC(=O)[C@H](C)N(C)C(=O)C[C@@H](C)N(C)C(=O)[C@H](CC(C)C)NC(=O)C(C)(C)N(C)C(=O)[C@H](CC(C)C)NC(=O)[C@H](CCc2ccc(C(F)(F)F)c(Cl)c2)NC(=O)CN(C)C(=O)[C@H](CC2CCCCC2)N(C)C(=O)[C@@H]2CCN2C(=O)[C@H](C)N(C)C1=O [Compound 1391] (cyclo([Aze][NMeCha][Sar][hPhe(3-Cl-4-CF3)]L[NMeAib]L[NMedβ3hAla][NMeA]I[NMeA])) | 65
CC[C@H](C)[C@@H]1NC(=O)[C@H](C)N(C)C(=O)C[C@@H](C)N(C)C(=O)[C@H](CC(C)C)NC(=O)C(C)(C)N(C)C(=O)[C@H](CC(C)C)NC(=O)[C@H](CCc2ccc(C(F)(F)F)c(Cl)c2)NC(=O)CN(C)C(=O)[C@H](Cc2ccc(C(F)(F)F)cc2)N(C)C(=O)[C@@H]2CCN2C(=O)CN(C)C1=O [Compound 1392] (cyclo([Aze][NMePhe(4-CF3)][Sar][hPhe(3-Cl-4-CF3)]L[NMeAib]L[NMedβ3hAla][NMeA]I[Sar])) | 28
CC[C@H](C)[C@@H]1NC(=O)[C@H](CC(C)C)N(C)C(=O)C[C@@H](C)N(C)C(=O)[C@H](CC(C)C)NC(=O)C(C)(C)N(C)C(=O)[C@H](CC(C)C)NC(=O)[C@H](CCc2ccc(C(F)(F)F)c(Cl)c2)NC(=O)[C@@H](C)N(C)C(=O)[C@H](Cc2ccc(C)cc2)N(C)C(=O)[C@@H]2CCN2C(=O)CN(C)C1=O [Compound 1394] (cyclo([Aze][NMePhe(4-Me)][dNMeA][hPhe(3-Cl-4-CF3)]L[NMeAib]L[NMedβ3hAla][NMeL]I[Sar])) | 130
CC[C@H](C)[C@@H]1NC(=O)[C@H](CC(C)C)N(C)C(=O)C[C@@H](C)N(C)C(=O)[C@H](CC(C)C)NC(=O)C(C)(C)N(C)C(=O)[C@H](CC(C)C)NC(=O)[C@H](CCc2ccc(C(F)(F)F)c(Cl)c2)NC(=O)[C@@H](C)N(C)C(=O)[C@H](Cc2ccc(C(F)(F)F)cc2)N(C)C(=O)[C@@H]2CCN2C(=O)CN(C)C1=O [Compound 1395] (cyclo([Aze][NMePhe(4-CF3)][dNMeA][hPhe(3-Cl-4-CF3)]L[NMeAib]L[NMedβ3hAla][NMeL]I[Sar])) | 270
CC[C@H](C)[C@@H]1NC(=O)[C@H](C)N(C)C(=O)C[C@@H](C)N(C)C(=O)[C@H](CC(C)C)NC(=O)C(C)(C)N(C)C(=O)[C@H](CC(C)C)NC(=O)[C@H](CCc2ccc(C(F)(F)F)c(Cl)c2)NC(=O)CN(C)C(=O)[C@H](Cc2ccc(C(F)(F)F)cc2)N(C)C(=O)[C@@H]2CCN2C(=O)[C@H](C)N(C)C1=O [Compound 1399] (cyclo([Aze][NMePhe(4-CF3)][Sar][hPhe(3-Cl-4-CF3)]L[NMeAib]L[NMedβ3hAla][NMeA]I[NMeA])) | 70
CC[C@H](C)[C@@H]1NC(=O)[C@H](CC(C)C)N(C)C(=O)C[C@@H](C)N(C)C(=O)[C@H](CC(C)C)NC(=O)C(C)(C)N(C)C(=O)[C@H](CC(C)C)NC(=O)[C@H](CCc2ccc(C(F)(F)F)c(Cl)c2)NC(=O)[C@@H](C)N(C)C(=O)[C@H](CC2CCCCC2)N(C)C(=O)[C@@H]2CCN2C(=O)CN(C)C1=O [Compound 1400] (cyclo([Aze][NMeCha][dNMeA][hPhe(3-Cl-4-CF3)]L[NMeAib]L[NMedβ3hAla][NMeL]I[Sar])) | 210
CC[C@H](C)[C@@H]1NC(=O)[C@H](CC(C)C)N(C)C(=O)C[C@@H](C)N(C)C(=O)[C@H](CC(C)C)NC(=O)C(C)(C)N(C)C(=O)[C@H](CC(C)C)NC(=O)[C@H](CCc2ccc(C(F)(F)F)c(Cl)c2)NC(=O)CN(C)C(=O)[C@H](Cc2ccc(C(F)(F)F)cc2)N(C)C(=O)[C@@H]2CCN2C(=O)[C@H](C)N(C)C1=O [Compound 1401] (cyclo([Aze][NMePhe(4-CF3)][Sar][hPhe(3-Cl-4-CF3)]L[NMeAib]L[NMedβ3hAla][NMeL]I[NMeA])) | 120
CC[C@H](C)[C@@H]1NC(=O)[C@H](C)N(C)C(=O)C[C@@H](C)N(C)C(=O)[C@H](CC(C)C)NC(=O)C(C)(C)N(C)C(=O)[C@H](CC(C)C)NC(=O)[C@H](CCc2ccc(C(F)(F)F)c(Cl)c2)NC(=O)CN(C)C(=O)[C@H](Cc2ccc(C)cc2)N(C)C(=O)[C@@H]2CCN2C(=O)[C@H](C)N(C)C1=O [Compound 1402] (cyclo([Aze][NMePhe(4-Me)][Sar][hPhe(3-Cl-4-CF3)]L[NMeAib]L[NMedβ3hAla][NMeA]I[NMeA])) | 57
CC[C@H](C)[C@@H]1NC(=O)[C@H](CC(C)C)N(C)C(=O)C[C@@H](C)N(C)C(=O)[C@H](CC(C)C)NC(=O)C(C)(C)N(C)C(=O)[C@H](CC(C)C)NC(=O)[C@H](CCc2ccc(C(F)(F)F)c(Cl)c2)NC(=O)CN(C)C(=O)[C@H](Cc2ccc(C(F)(F)F)cc2)N(C)C(=O)[C@@H]2CCN2C(=O)CN(C)C1=O [Compound 1403] (cyclo([Aze][NMePhe(4-CF3)][Sar][hPhe(3-Cl-4-CF3)]L[NMeAib]L[NMedβ3hAla][NMeL]I[Sar])) | 32
CCCC[C@@H]1NC(=O)[C@H](Cc2cccc(Br)c2)NC(=O)CN(C)C(=O)[C@H](Cc2ccc(Cl)cc2)N(C)C(=O)CN(C)C(=O)CN(C)C(=O)[C@H]([C@@H](C)CC)NC(=O)[C@H](CC(C)C)N(C)C(=O)C[C@@H](C(=O)N2CCCCC2)N(C)C(=O)[C@H](CC(C)C)NC(=O)C(C)(C)N(C)C1=O [Compound 1404] ([NMeL]I[Sar][Sar][NMePhe(4-Cl)][Sar][Phe(3-Br)][Nle][NMeAib]L[NMeD]-Piperidide; lactam N-11) | 17
C=C(C)C[C@@H]1NC(=O)[C@H](Cc2cccc(I)c2)NC(=O)CN(C)C(=O)[C@H](CC2CCCC2)N(C)C(=O)[C@@H]2CCN2C(=O)[C@H](C)N(C)C(=O)[C@H]([C@@H](C)CC)NC(=O)[C@H](CC(C)C)N(C)C(=O)C[C@@H](C(=O)N2CCCCC2)N(C)C(=O)[C@H](CC(C)C)NC(=O)C(C)(C)N(C)C1=O [Compound 1405] ([NMeL]I[NMeA][Aze][NMeAla(cPent)][Sar][Phe(3-I)][Leu(4,5-dehydro)][NMeAib]L[NMeD]-Piperidide; lactam N-11) | 82
CCCC[C@@H]1NC(=O)[C@H](Cc2cccc(Cl)c2)NC(=O)CN(C)C(=O)[C@H](Cc2ccc(Cl)cc2)N(C)C(=O)CN(C)C(=O)CN(C)C(=O)[C@H]([C@@H](C)CC)NC(=O)[C@H](CC(C)C)N(C)C(=O)C[C@@H](C(=O)N2CCCC2)N(C)C(=O)[C@H](CC(C)C)NC(=O)C(C)(C)N(C)C1=O [Compound 1407] ([NMeL]I[Sar][Sar][NMePhe(4-Cl)][Sar][Phe(3-Cl)][Nle][NMeAib]L[NMeD]-Pyrrolidide; lactam N-11) | 170
CC[C@H](C)[C@@H]1NC(=O)[C@H](CC(C)C)N(C)C(=O)C[C@@H](C)N(C)C(=O)[C@H](CC(C)C)NC(=O)C(C)(C)N(C)C(=O)[C@H](CC=C(C)C)NC(=O)[C@H](Cc2cccc(I)c2)NC(=O)CN(C)C(=O)[C@H](Cc2ccc(Cl)cc2)N(C)C(=O)[C@@H]2CCN2C(=O)CN(C)C1=O [Compound 1408] (cyclo([Aze][NMePhe(4-Cl)][Sar][Phe(3-I)][X10][NMeAib]L[NMedβ3hAla][NMeL]I[Sar])) | 160
CCCC[C@@H]1NC(=O)[C@H](Cc2cccc(I)c2)NC(=O)CN(C)C(=O)[C@H](Cc2ccc(Cl)cc2)N(C)C(=O)CN(C)C(=O)CN(C)C(=O)[C@H]([C@@H](C)CC)NC(=O)[C@H](CC(C)C)N(C)C(=O)C[C@@H](C(=O)N2CCCC2)N(C)C(=O)[C@H](Cc2ccccc2)NC(=O)C(C)(C)N(C)C1=O [Compound 1409] ([NMeL]I[Sar][Sar][NMePhe(4-Cl)][Sar][Phe(3-I)][Nle][NMeAib]F[NMeD]-Pyrrolidide; lactam N-11) | 170
CCCC[C@@H]1NC(=O)[C@H](Cc2cccc(I)c2)NC(=O)CN(C)C(=O)[C@H](Cc2ccc(Cl)cc2)N(C)C(=O)CN(C)C(=O)CN(C)C(=O)[C@H]([C@@H](C)CC)NC(=O)[C@H](CC(C)C)N(C)C(=O)C[C@@H](C(=O)N2CCCC2)N(C)C(=O)[C@H](CCC)NC(=O)C(C)(C)N(C)C1=O [Compound 1410] ([NMeL]I[Sar][Sar][NMePhe(4-Cl)][Sar][Phe(3-I)][Nle][NMeAib][Nva][NMeD]-Pyrrolidide; lactam N-11) | 270
CCCC[C@@H]1NC(=O)[C@H](Cc2cccc(OC)c2)NC(=O)CN(C)C(=O)[C@H](Cc2ccc(Cl)cc2)N(C)C(=O)CN(C)C(=O)CN(C)C(=O)[C@H]([C@@H](C)CC)NC(=O)[C@H](CC(C)C)N(C)C(=O)C[C@@H](C(=O)N2CCCC2)N(C)C(=O)[C@H](CC(C)C)NC(=O)C(C)(C)N(C)C1=O [Compound 1412] ([NMeL]I[Sar][Sar][NMePhe(4-Cl)][Sar][Phe(3-OMe)][Nle][NMeAib]L[NMeD]-Pyrrolidide; lactam N-11) | 310
CCCC[C@@H]1NC(=O)[C@H](Cc2cccc(I)c2)NC(=O)CN(C)C(=O)[C@H](CC2CCC2)N(C)C(=O)[C@@H]2CCN2C(=O)[C@H](C)N(C)C(=O)[C@H]([C@@H](C)CC)NC(=O)[C@H](CC(C)C)N(C)C(=O)C[C@@H](C(=O)N2CCCCC2)N(C)C(=O)[C@H](CC(C)C)NC(=O)C(C)(C)N(C)C1=O [Compound 1413] ([NMeL]I[NMeA][Aze][NMeCba][Sar][Phe(3-I)][Nle][NMeAib]L[NMeD]-Piperidide; lactam N-11) | 190
